This note sets out measurements from patent CN108992440A, “去甲斑蝥素在制备治疗破骨细胞过度激活相关疾病药物中的应用” (priority 2018, dated 2018).

What all share (type): cell-based, mouse
Data set [1] relates to osteoclasts [破骨细胞]. Description: TRAP staining: RANKL-induced osteoclast differentiation from BMMs. The conditions noted are these: RANKL induction 5 days, 0, 1, 2.5, 5, 10 μM NCTD.
Data set [2] concerns osteoclasts [破骨细胞]. Briefly: TRAP staining: stage of osteoclast formation inhibited by NCTD. The conditions noted are these: 5 μM NCTD.
For data set [3], the system named is c-Fos. Description: Q-PCR of osteoclast marker gene: c-Fos. The following applies: RANKL 100 ng/ml, M-CSF 30 ng/ml, 5 days.
For data set [4], the system named is CTSK. Description: Q-PCR of osteoclast marker gene: CTSK. The following applies: RANKL 100 ng/ml, M-CSF 30 ng/ml, 5 days.
The subject of data set [5] is c-Jun N-terminal kinase (JNK) [c-Jun氨基端激酶(JNK)]. Briefly: Western blot: JNK (MAPK family). The conditions noted are these: BMMs.
Data set [6] in a line: MTT assay of the effect of NCTD on viability of bone-marrow-derived macrophages. The following applies: mouse, bone marrow macrophages; MTT, BMMs, 48 h; read-out: concentration from which BMM activity begins to be affected. Background: Tetrazolium assays rely on reduction of a dye to a coloured formazan, in cell work by metabolically active cells.
The test system of data set [7] is BMM cells [BMMs]. The description is as above.
In data set [8] the test system is IκBα. Description: IκBα degradation (NF-κB signalling pathway).
Data set [9] has as its system CTR. Description: Q-PCR of osteoclast marker gene: CTR. The following applies: RANKL 100 ng/ml, M-CSF 30 ng/ml, 5 days.
Data set [10] has as its system p38 kinase [p38激酶]. Description: Western blot: RANKL-stimulated p38 phosphorylation. The following applies: BMMs, RANKL 15 min; 0, 2.5, 5, 10 μM NCTD. (In general: Immunoblotting shows a protein as a band on a membrane.)
The subject of data set [11] is NFATc1. Description: Q-PCR of osteoclast marker gene: NFATc1. The following applies: RANKL 100 ng/ml, M-CSF 30 ng/ml, 5 days.
For data set [12], the system named is extracellular signal-regulated kinase (ERK) [细胞外信号调节激酶(ERK)]. Description: Western blot: RANKL-stimulated ERK phosphorylation. The conditions noted are these: BMMs, RANKL 15 min; 0, 2.5, 5, 10 μM NCTD.
Data set [13] relates to TRAP. Briefly: Q-PCR of osteoclast marker gene: TRAP. The conditions noted are these: RANKL 100 ng/ml, M-CSF 30 ng/ml, 5 days.
In data set [14] the test system is BMM cells [BMMs]. Briefly: Annexin V-FITC/PI flow cytometry: apoptosis of BMMs. The following applies: BMMs, 0, 2.5, 5, 10 μM NCTD, 48 h. On the technique in general: Flow cytometry measures light scatter and fluorescence of single cells or particles in a stream.
Setting [15] is: pretreatment (12 h before RANKL).

On to `O=C1OC(=O)C2C3CCC(O3)C12` (stereo not shown) [NCTD, 去甲斑蝥素], for which the “osteoclast formation (osteoclast number and area)” value in [1] is recorded as “能够明显抑制破骨细胞的生成,且呈剂量依赖性关系”. The “osteoclast number and area” value in [2] (early treatment (first 2 days of induction)) was “能够显著改变破骨细胞数量和面积”. Further, the osteoclast area entry in [2] (late treatment (last 3 days of induction)) is “对破骨细胞面积没有明显影响”. Moreover, in [2] (setting [15]), the osteoclast formation entry is given as “在一定程度上可抑制破骨细胞形成”; the “osteoclast number and size vs control” value was “均有明显差异”. Besides, the “inhibition of osteoclast differentiation” value in data set [2] (pretreatment + whole-course treatment) was “对破骨细胞分化抑制最为明显”. The “inhibition of osteoclast differentiation” value in data set [2] (whole-course treatment (5 days)) is “对破骨细胞分化抑制最为明显”. For the same molecule, in data set [3], the c-Fos expression entry is reported as “浓度依赖地抑制”. In addition, the CTSK expression entry in [4] was “浓度依赖地抑制”. Also, the “inhibition of JNK” value in [5] (RANKL 15 min, 0, 2.5, 5, 10 μM NCTD) is recorded as “没有明显抑制作用”. The JNK phosphorylation result in data set [5] (RANKL-stimulated) was “没有影响”. In addition, the MCC at 48 h in data set [6] is 20 µM. Moreover, the IC50 in data set [7] (Mus musculus, Macrophage, MTT, BMMs, 48 h, 0-320 μM NCTD, GraphPad Prism, read-out: half-inhibitory concentration (IC50) on BMMs) came out at 59.7 µM. In [7] (at 10 μM and below), the “toxicity to BMM cells” value is on record as “无毒性作用”. Further, the IκBα degradation result in data set [8] (BMMs, RANKL-stimulated) was “没有抑制IκBα的降解”. Also, in data set [8] (by IκBα degradation), the “RANKL-activated NF-κB signalling pathway” value is “没有明显影响”. In [9], the CTR expression result is “浓度依赖地抑制”. For the same molecule, in data set [10], the p38 phosphorylation result is recorded as “明显受到抑制”. In data set [11], the NFATc1 expression entry was “浓度依赖地抑制”. The ERK phosphorylation entry in [12] is on record as “明显受到抑制”. In [13], the TRAP expression result was “浓度依赖地抑制”. Besides, the apoptosis entry in data set [14] was “不会引起细胞凋亡”.
